Experimental data published in patent US20020187538A1, “cDNA clone of (+)- delta-cadinene-8-hydroxylase gene from cotton plants” (priority 2001, published 2002).

Tested on: CYP706B1
Test: (+)-d-cadinene hydroxylase activity assay, inhibitors and cofactor
Format: biochemical, Gossypium arboreum
Conditions: for sensitivity to inhibition: qualitative statement, taken as indication of a cytochrome P450
Protocol: The yeast Saccharomyces cerevisiae strain W(R), which overexpresses the yeast cytochrome P450 reductase when grow on galactose, and the expression vector pYeDP60 were provided by D. Pompon (Pompon et al (1996) Methods Enzymol. 272, 51-64). The cDNA of CYP706B1 was modified by PCR with a 5′-terminal primer 5ç-[…] (sense), in which a Kpn I site was introduced, and a 3′-terminal primer 5ç-[…] (reverse), in which a Sac I site was introduced. PCR was conducted on plasmid DNA by using Pyrobest™ DNA polymerase (TaKaRa). After digestion with the restriction enzymes, the fragment was inserted into pYeDP60. Plasmid DNA was introduced into yeast cells by a LiAc method, transformed yeast cells were then selected, cultured, and induced, and microsomes were prepared following a high density procedure (Pompon et al (1996) Methods Enzymol. 272, 51-64).
The (+)-d-cadinene hydroxylase activity assay was based on a published protocol for monoterpene P450 hydroxylases (Mihaliak et al. (1993) Methods Plant Biochem. 9, 261-279). The radioactive assay was conducted in […] of potassium phosphate buffer (50 mM, pH 7.4) containing 1 mM EDTA (pH 8.0), 0.4 M sucrose, 2 mM DTT, 0.1% BSA, 1 mM NADPH, 5 mM FAD, 5 mM FMN, 4 mM glucose-6-phosphate, 1 unit of glucose-6-phosphate dehydrogenase, […] ^3H-(+)-d-cadinene (32 mCi/mmol) and yeast microsomes (100^˜[…] protein). The reaction was started by adding the microsomes, incubated at 30° C. for 1 hr, and stopped by chilling on ice. The reaction mixture was extracted three times with […] hexane:ethyl acetate (1:1), the extract was filtered through a 0.2 g, 100^˜200 mesh silica gel column in a pasteur pipet, eluted with 1.5 mL hexane:ethyl acetate (1:1), and concentrated to ca […] with an argon stream. The entire sample was subjected to reversed phase HPLC on C18 silica (250×4.6 mm, […] particle diameter) with a gradient of 40:60 to 100:0 acetonitrile/water (v/v) over 60 min followed by 10 min of 100% acetonitrile, flow rate 1 mL/min. Tritium was detected by an on-line liquid scintillation counter (b-RAM, IN/US Systems, Inc., Tampa, Fla.). […]

Q: Which sensitivity to inhibition does the source give for Clc1ccc(COC(Cn2ccnc2)c2ccc(Cl)cc2Cl)c(Cl)c1 (stereo not drawn) [miconazole] here?
A: sensitivity to inhibition

Q: Which results are given for [C-]#[O+] [CO, carbon monoxide]?
A: sensitivity to inhibition: sensitivity to inhibition; inhibition of the hydroxylase activity (reaction mixture treated with a slow stream of CO for about 2 min, yeast microsomes containing CYP706B1): 70%
